From EP0512754B1 (AMERICAN HOME PRODUCTS CORPORATION, priority 1991, dated 1992)
Where two headings read alike, the source gives them in different places.

Legend:
[1] = test system: mixed lymphocyte reaction; assay: popliteal lymph node (PLN) test procedure, in vivo mixed lymphocyte reaction; design: species or system C3H mice; settings: for PLN Activity relative to Rapamycin: ratio to rapamycin
Protocol: (§1) Immunosuppressive activity was evaluated in an in vitro standard pharmacological test procedure to measure lymphocyte proliferation (LAF) and in two in vivo standard pharmacological test procedures. The first in vivo procedure was a popliteal lymph node (PLN) test procedure which measured the effect of compounds of this invention on a mixed lymphocyte reaction and the second in vivo procedure evaluated the survival time of a pinch skin graft.
A mixed lymphocyte reaction (MLR) occurs when lymphoid cells from genetically distinct animals are combined in tissue culture. Each stimulates the other to undergo blast transformation which results in increased DNA synthesis that can be quantified by the incorporation of tritiated thymidine. Since stimulating a MLR is a function of disparity at Major Histocompatibility antigens, an in vivo popliteal lymph node (PLN) test procedure closely correlates to host vs. graft disease. Briefly, irradiated spleen cells from BALB/c donors are injected into the right hind foot pad of recipient C3H mice. […] On Day 3 and Day 4, tritiated thymidine is given i.p., b.i.d. On Day 5, the hind popliteal lymph nodes are removed and dissolved, and radioactivity counted. The corresponding left PLN serves as the control for the PLN from the injected hind foot. Percent suppression is calculated using the non-drug treated animals as allogenic control.

[2] = test system: pinch skin graft from male DBA/2 donors transplanted to male BALB/c recipients; assay: pinch skin graft survival time; format: in vivo; settings: DBA/2 donors to BALB/c recipients, treated intraperitoneally; mean ± S.D.
Protocol: as §1
The second in vivo test procedure is designed to determine the survival time of pinch skin graft from male DBA/2 donors transplanted to male BALB/c recipients. The method is adapted from Billingham R.E. and Medawar P.B., J. Exp. Biol. 28:385-402, (1951). Briefly, a pinch skin graft from the donor is grafted on the dorsum of the recipient as a homograft, and an autograft is used as control in the same region. […] Untreated recipients serve as rejection control. The graft is monitored daily and observations are recorded until the graft becomes dry and forms a blackened scab. This is considered as the rejection day. The mean graft survival time (number of days ± S.D.) of the drug treatment group is compared with the control group.

[3] = test system: Candida albicans 3669; assay: plate test procedure for antifungal activity; format: cell-based; settings: strain 3669
Protocol: (§2) Antifungal activity of the compounds of this invention was measured against 5 strains of Candida albicans using a plate test procedure for measurement of inhibition. The following represents the typical procedure used. The compound to be tested was placed on sterile dried 1/4" plate disks, and allowed to dry. Agar plates were seeded with fungi and allowed to solidify. The impregnated disks were placed on the seeded Agar surface and incubated for the time required for the particular culture. Results are expressed in MIC (µg/ml) to inhibit growth.
(§3) The compounds of Examples 1 and 4 had the following minimal inhibitory concentrations (50%) against 5 strains of Candida albicans.

[4] = test system: Candida albicans ATCC 38246; assay: plate test procedure for antifungal activity; format: cell-based; settings: strain ATCC 38246
Protocol: as §2, §3

[5] = test system: Candida albicans ATCC 38247; assay: plate test procedure for antifungal activity; format: cell-based; settings: strain ATCC 38247
Protocol: as §2, §3

[6] = test system: Candida albicans ATCC 10231; assay: plate test procedure for antifungal activity; format: cell-based; settings: strain ATCC 10231
Protocol: as §2, §3

[7] = test system: Candida albicans ATCC 38248; assay: plate test procedure for antifungal activity; format: cell-based; settings: strain ATCC 38248
Protocol: as §2, §3

[8] = test system: cells from the thymus of normal BALB/c mice; assay: comitogen-induced thymocyte proliferation procedure (LAF); format: cell-based; settings: read-out: LAF IC50
Protocol: as §1
The comitogen-induced thymocyte proliferation procedure (LAF) was used as an in vitro measure of the immunosuppressive effects of representative compounds. Briefly, cells from the thymus of normal BALB/c mice are cultured for 72 hours with PHA and IL-1 and pulsed with tritiated thymidine during the last six hours. […] Cells are harvested and incorporated; radioactivity is determined. Inhibition of lymphoproliferation is assessed in percent change in counts per minute from non-drug treated controls. […] (()^3 (H-control thymus cells - H)^3 rapamycin-treated thymus cells)/(()^3 (H-control thymus cells - H)^3 -test compound-treated cells) [formula]

[9] = thymocytes cultured 72 hours with PHA and IL-1, tritiated thymidine incorporation
[10] = Mus musculus, Thymocyte, 72 h, thymocytes cultured 72 hours with PHA and IL-1, tritiated thymidine incorporation

With “33-Deoxy-33-hydroxyrapamycin [Example 4]” the “PLN Activity relative to Rapamycin” value ([1]; route not printed in the cell (method: daily p.o. Day 0 to Day 4)) was 0.59, the “Skin Graft Mean survival days” value [2] was 10.0 days and the “Anti-Candida Activity, Minimal Inhibitory Concentration (50%)” value [3] was 0.25 µg/mL. For the same compound, the “Anti-Candida Activity, Minimal Inhibitory Concentration (50%)” value [4] was greater than 0.4 µg/mL, the “Anti-Candida Activity, Minimal Inhibitory Concentration (50%)” value [5] was 0.03 µg/mL and the “Anti-Candida Activity, Minimal Inhibitory Concentration (50%)” value [6] was 0.05 µg/mL. For the same compound, the “Anti-Candida Activity, Minimal Inhibitory Concentration (50%)” value [7] was 0.006 µg/mL and the IC50 [8, 9] was 4.7 nM.
For CO[C@H]1C[C@@H]2CC[C@@H](C)[C@@](O)(O2)C(O)C(=O)N2CCCC[C@H]2C(=O)O[C@H]([C@H](C)C[C@@H]2CC[C@@H](O)[C@H](OC)C2)CC(O)[C@H](C)/C=C(\C)[C@@H](O)[C@@H](OC)C(=O)[C@H](C)C[C@H](C)/C=C/C=C/C=C/1C (single isomer, unassigned) [Example 2, 15,27-di(deoxo)-15,27-di(hydroxy)rapamycin], the “Skin Graft Mean survival days” value [2] was 9.2 ± 0.41 days and the IC50 [8, 10] was 0.67 nM.
For CO[C@H]1C[C@@H]2CC[C@@H](C)[C@@](O)(O2)C(O)C(=O)N2CCCC[C@H]2C(=O)O[C@H]([C@H](C)C[C@@H]2CC[C@@H](O)[C@H](OC)C2)CC(O)[C@H](C)/C=C(\C)[C@@H](O)[C@@H](OC)C(=O)[C@H](C)C[C@H](C)/C=C/C=C/C=C/1C (single isomer, unassigned) [Example 3, 15,27-di(deoxo)-15,27-di(hydroxy)rapamycin], the “PLN Activity relative to Rapamycin” value ([1]; ip) was 0.92 ip, the “Skin Graft Mean survival days” value [2] was 9.5 ± 5.5 days and the IC50 [8, 9] was 0.84 nM.
For CO[C@H]1C[C@@H]2CC[C@@H](C)[C@@](O)(O2)C(O)C(=O)N2CCCC[C@H]2C(=O)O[C@H]([C@H](C)C[C@@H]2CC[C@@H](O)[C@H](OC)C2)CC(=O)[C@H](C)/C=C(\C)[C@@H](O)[C@@H](OC)C(=O)[C@H](C)C[C@H](C)/C=C/C=C/C=C/1C (stereo partly shown) [Example 1, 15-Deoxo-15-hydroxyrapamycin], the “PLN Activity relative to Rapamycin” value ([1]; ip) was -0.07, the “PLN Activity relative to Rapamycin” value ([1]; po) was -2.47 and the “Skin Graft Mean survival days” value [2] was 9.8 ± 1.0 days. The IC50 [8, 10] was 0.58 nM.
For CO[C@H]1C[C@@H]2CC[C@@H](C)[C@@](O)(O2)C(=O)C(=O)N2CCCC[C@H]2C(=O)O[C@H]([C@H](C)C[C@@H]2CC[C@@H](O)[C@H](OC)C2)CC(=O)[C@H](C)/C=C(\C)[C@@H](O)[C@@H](OC)C(=O)[C@H](C)C[C@H](C)/C=C/C=C/C=C/1C [Rapamycin, reference compound], the “Percent suppression (PLN)” value ([1]; 6 mg/kg, p.o., against non-drug treated allogenic control) was 86% and the IC50 ([8]; Mus musculus, Thymocyte, 72 h) was 3.3 nM.
